{"source": "patent US10098964B2", "about": "“Inclusion complexes and methods for making the same” (The Board of Trustees of the University of Illinois, priority 2015, dated 2018)", "key": {"[1]": {"test": "In-vitro fermentation (large intestine): butyrate produced", "type": "in vitro ADME"}, "[2]": {"conditions": "cited from earlier work"}}}
{"compound": "CCCC(=O)OCC(COC(=O)CCC)OC(=O)CCC", "note": "[Tributyrin, 1,3-di(butanoyloxy)propan-2-yl butanoate]", "values": [{"measurement": "Butyrate produced, 4 hr", "setting": "[1]; fermentation 4 hr, representative of ascending large intestine", "value": "106389.69 µg/g (DMB)"}, {"measurement": "Butyrate produced, 8 hr", "setting": "[1]; fermentation 8 hr, representative of transverse large intestine", "value": "164605.74 µg/g (DMB)"}, {"measurement": "Butyrate produced, 12 hr", "setting": "[1]; fermentation 12 hr, representative of descending large intestine", "value": "134093.05 µg/g (DMB)"}]}
{"compound": "CCCC(=O)O", "note": "[butyrate, butyric acid]", "values": [{"measurement": "half-life in human plasma", "setting": "[2]", "value": "< 6", "unit": "min"}]}
